Experiments:
Test in all cases: In vitro assay of antibacterial activity (agar dilution MIC)
Type in all cases: cell-based
[1] = system: Candida albicans CCH 442; conditions: BHI agar, 35-37 °C, 20 to 24 hours, unit assumed
Description: (§1) Representative compounds of the present invention were assayed in vitro for antibacterial activity as follows: Twelve petri dishes containing successive aqueous dilutions of the test compound mixed with 10 mL of sterilized Brain Heart Infusion (BHI) agar (Difco 0418-01-5) were prepared. Each plate was inoculated with 1:100 (or 1:10 for slow-growing strains, such as Micrococcus and Streptococcus) dilutions of up to 32 different microorganisms, using a Steers replicator block. The inoculated plates were incubated at 35-37 °C for 20 to 24 hours, In addition, a control plate, using BHI agar containing no test compound, was prepared and incubated at the beginning and end of each test.
(§2) An additional plate containing a compound having known susceptibility patterns for the organisms being tested and belonging to the same antibiotic class as the test compound was also prepared and incubated as a further control, as well as to provide test-to-test comparability. Erythromycin A was used for this purpose.
(§3) After incubation, each plate was visually inspected. The minimum inhibitory concentration (MIC) was defined as the lowest concentration of drug yielding no growth, a slight haze, or sparsely isolated colonies on the inoculum spot as compared to the growth control. […]

[2] = system: Enterobacter aerogenes ATCC 13048; conditions: BHI agar, 35-37 °C, 20 to 24 hours, unit assumed
Description: as §1, §2, §3

[3] = system: Enterococcus faecium ATCC 8043; conditions: BHI agar, 35-37 °C, 20 to 24 hours, unit assumed
Description: as §1, §2, §3

[4] = system: Escherichia coli DC-2; conditions: BHI agar, 35-37 °C, 20 to 24 hours, unit assumed
Description: as §1, §2, §3

[5] = system: Escherichia coli H560; conditions: BHI agar, 35-37 °C, 20 to 24 hours, unit assumed
Description: as §1, §2, §3

[6] = system: Escherichia coli JUHL; conditions: BHI agar, 35-37 °C, 20 to 24 hours, in µg/mL (unit assumed)
Description: as §1, §2, §3

[7] = system: Escherichia coli KNK 437; conditions: BHI agar, 35-37 °C, 20 to 24 hours, unit assumed
Description: as §1, §2, §3

[8] = system: Escherichia coli SS; conditions: BHI agar, 35-37 °C, 20 to 24 hours, unit assumed
Description: as §1, §2, §3

[9] = system: Klebsiella pneumoniae ATCC 8045; conditions: BHI agar, 35-37 °C, 20 to 24 hours, unit assumed
Description: as §1, §2, §3

[10] = system: Micrococcus luteus ATCC 4698; conditions: BHI agar, 35-37 °C, 20 to 24 hours, unit assumed
Description: as §1, §2, §3

[11] = system: Micrococcus luteus ATCC 9341; conditions: BHI agar, 35-37 °C, 20 to 24 hours, unit assumed
Description: as §1, §2, §3

[12] = system: Mycobacterium smegmatis ATCC 114; conditions: BHI agar, 35-37 °C, 20 to 24 hours, unit assumed
Description: as §1, §2, §3

[13] = system: Providencia struartii CMX 640; conditions: BHI agar, 35-37 °C, 20 to 24 hours, unit assumed
Description: as §1, §2, §3

[14] = system: Pseudomonas aeruginosa 5007; conditions: BHI agar, 35-37 °C, 20 to 24 hours, unit assumed
Description: as §1, §2, §3

[15] = system: Pseudomonas aeruginosa BMH10; conditions: BHI agar, 35-37 °C, 20 to 24 hours, in µg/mL (unit assumed)
Description: as §1, §2, §3

[16] = system: Pseudomonas aeruginosa DPHD-2862; conditions: BHI agar, 35-37 °C, 20 to 24 hours, unit assumed
Description: as §1, §2, §3

[17] = system: Pseudomonas aeruginosa DPHD-5263; conditions: BHI agar, 35-37 °C, 20 to 24 hours, in µg/mL (unit assumed)
Description: as §1, §2, §3

[18] = system: Pseudomonas aeruginosa K799/61; conditions: BHI agar, 35-37 °C, 20 to 24 hours, unit assumed
Description: as §1, §2, §3

[19] = system: Pseudomonas aeruginosa K799/WT; conditions: BHI agar, 35-37 °C, 20 to 24 hours, unit assumed
Description: as §1, §2, §3

[20] = system: Pseudomonas capacia 2961; conditions: BHI agar, 35-37 °C, 20 to 24 hours, in µg/mL (unit assumed)
Description: as §1, §2, §3

[21] = system: Staphylococcus aureus 1775; conditions: BHI agar, 35-37 °C, 20 to 24 hours, unit assumed
Description: as §1, §2, §3

[22] = system: Staphylococcus aureus A-5278; conditions: BHI agar, 35-37 °C, 20 to 24 hours, unit assumed
Description: as §1, §2, §3

[23] = system: Staphylococcus aureus ATCC 6538P; conditions: BHI agar, 35-37 °C, 20 to 24 hours, unit assumed
Description: as §1, §2, §3

[24] = system: Staphylococcus aureus CMX 553; conditions: BHI agar, 35-37 °C, 20 to 24 hours, unit assumed
Description: as §1, §2, §3

[25] = system: Staphylococcus aureus CMX 642A; conditions: BHI agar, 35-37 °C, 20 to 24 hours, unit assumed
Description: as §1, §2, §3

[26] = system: Staphylococcus aureus NCTC10649M; conditions: BHI agar, 35-37 °C, 20 to 24 hours, unit assumed
Description: as §1, §2, §3

[27] = system: Staphylococcus epidermidis 3519; conditions: BHI agar, 35-37 °C, 20 to 24 hours, unit assumed
Description: as §1, §2, §3

[28] = system: Streptococcus agalactiae CMX 508; conditions: BHI agar, 35-37 °C, 20 to 24 hours, unit assumed
Description: as §1, §2, §3

[29] = system: Streptococcus pyogenes 930; conditions: BHI agar, 35-37 °C, 20 to 24 hours, unit assumed
Description: as §1, §2, §3

[30] = system: Streptococcus pyogenes EES61; conditions: BHI agar, 35-37 °C, 20 to 24 hours, unit assumed
Description: as §1, §2, §3

[31] = system: Streptococcus pyogenes PIU 2548; conditions: BHI agar, 35-37 °C, 20 to 24 hours, unit assumed
Description: as §1, §2, §3

[32] = system: Actinetobacter calcoaceticus CMX 669; conditions: BHI agar, 35-37 °C, 20 to 24 hours, unit assumed
Description: as §1
(§4) An additional plate containing a compound having known susceptibility patterns for the organisms being tested and belonging to the same antibiotic class as the test compound was also prepared and incubated as a further control, as well as to provide test-to-test comparability.
as §3

[33] = system: Staphylococcus aureus A5177; conditions: BHI agar, 35-37 °C, 20 to 24 hours, unit assumed
Description: as §1, §4, §3

[34] = system: Streptococcus bovis A-5169; conditions: BHI agar, 35-37 °C, 20 to 24 hours, unit assumed
Description: as §1, §2, §3

Row | SMILES | MIC [1] | MIC [2] | MIC [3] | MIC [4] | MIC [5] | MIC [6] | MIC [7] | MIC [8] | MIC [9] | MIC [10] | MIC [11] | MIC [12] | MIC [13] | MIC [14] | MIC [15] | MIC [16] | MIC [17] | MIC [18] | MIC [19] | MIC [20] | other results
1 | CC[C@H]1OC(=O)[C@H](C)[C@@H](O[C@H]2C[C@@](C)(OC)[C@@H](O)[C@H](C)O2)[C@H](C)[C@@H](O[C@@H]2O[C@H](C)C[C@H](N(C)C)[C@H]2O)[C@](C)(OCC(O)CN2CCOCC2)C[C@@H](C)C(=O)[C@H](C)[C@@H](O)[C@]1(C)O (stereo partly shown) [Example 6, Comnound of Formula (X): X is =O, R is 2-hydroxy-3-(morpholin-4-yl)propyl] | > 100 µg/mL | > 100 µg/mL | 0.39 µg/mL | > 100 µg/mL | 100 µg/mL | > 100 | > 100 µg/mL | 0.78 µg/mL | > 100 µg/mL | 1.56 µg/mL | 0.1 µg/mL | 0.2 µg/mL | > 100 µg/mL | > 100 µg/mL | > 100 | > 100 µg/mL | > 100 | 12.5 µg/mL | > 100 µg/mL | > 100 | MIC [21]: > 100 µg/mL; MIC [22]: > 100 µg/mL; MIC [23]: 0.78 µg/mL; MIC [24]: 0.78 µg/mL; MIC [25]: 1.56 µg/mL; MIC [26]: 0.78 µg/mL; MIC [27]: 0.78 µg/mL; MIC [28]: 0.1 µg/mL; MIC [29]: > 100 µg/mL; MIC [30]: 0.05 µg/mL; MIC [31]: 6.2 µg/mL; MIC [32]: 25 µg/mL; MIC [33]: 25 µg/mL
2 | CC[C@H]1OC(=O)[C@H](C)[C@@H](O[C@H]2C[C@@](C)(OC)[C@@H](O)[C@H](C)O2)[C@H](C)[C@@H](O[C@@H]2O[C@H](C)C[C@H](N(C)C)[C@H]2O)[C@](C)(OCC(O)CO)C[C@@H](C)C(=O)[C@H](C)[C@@H](O)[C@]1(C)O (stereo partly shown) [Example 3, Compound of Formula (X): X is =O, R is 2.3-dihydroxypropyl] | > 100 µg/mL | > 100 µg/mL | 0.39 µg/mL | 50 µg/mL | 25 µg/mL | 50 | 100 µg/mL | 1.56 µg/mL | > 100 µg/mL | 1.56 µg/mL | 0.1 µg/mL | 0.78 µg/mL | > 100 µg/mL | > 100 µg/mL | >100 | > 100 µg/mL | > 100 | 1.56 µg/mL | > 100 µg/mL | >100 | MIC [21]: > 100 µg/mL; MIC [22]: > 100 µg/mL; MIC [23]: 1.56 µg/mL; MIC [24]: 3.1 µg/mL; MIC [25]: 1.56 µg/mL; MIC [26]: 1.56 µg/mL; MIC [27]: 0.78 µg/mL; MIC [28]: 0.39 µg/mL; MIC [34]: 0.2 µg/mL; MIC [29]: > 100 µg/mL; MIC [30]: 0.2 µg/mL; MIC [31]: 12.5 µg/mL; MIC [32]: 12.5 µg/mL; MIC [33]: 50 µg/mL
